Assays:
[1] = system: human OS cell lines (U2OS, G292, MG-63, HT-161, HOS, SAOS-2, and SJSA); assay: MTT assay, dose-response in human OS cell lines; format: cell-based
Method: (§1) 7 human OS cell lines (U2OS, G292, MG-63, HT-161, HOS, SAOS-2, and SJSA) were used in the study. Each cell line except HT-161 was obtained from the American Type Culture Collection (ATCC, Rockville, Md.). HT-161 was obtained from Dr. Emil Bogenmann (13). All cell lines were tested and authenticated prior to use according to cell line verification test recommendations by ATCC. OS cell lines were maintained in DMEM medium (Mediatech Inc., Herndon, Va.) supplemented with 10% fetal bovine serum (FBS; Atlanta Biological, Lawrenceville, Ga.) in a humidified incubator at 37° C. supplied with 5% CO2. Only the cells in exponential growth phase were used in the study.
(§2) Cell growth and survival were measured by 3-(4,5-dimethylthiazol-2-yl)-2,5-diphenyltetrazolium bromide (MTT) assay. […] After 48 hours of incubation, 10 μl of 5 mg/ml MTT solution (Sigma-Aldrich, St. Louis, Mo.) was added to each well and incubated further for 2 hours. […] For pulse-exposure experiments, MG-63 and SAOS-2 cells were seeded in 96-well plates and exposed to CuB at their ED50. After 2, 9, and 20 hours of exposure, cells were washed twice with PBS and incubated further in CuB-free media. Cell growth was checked by MTT assay at 24, 48, and 72 hours.

SAOS-2 cells = assay: MTT assay, SAOS-2 (dose-response, pulse-exposure, combination); format: cell-based, human; conditions: pulse-exposed at ED50 for 2, 9, and 20 hours
Method: as §1, §2
Calcusyn 2.0 (Biosoft, Ferguson, Mo.) was used for CI analysis.

MG-63 cells [2] = assay: Cell cycle analysis (PI, FACS), MG-63; format: cell-based, human
Method: (§3) Cells were harvested and fixed with 70% ethanol at regular time intervals. Fixed cells were stained with propidium iodide (PI) for flow cytometry analysis using BD FACScan (BD Biosciences, San Jose, Calif.). Distribution of cell cycle was analyzed by ModFit LT V2.0 software (Verity Software House, Topsham, Me.). […] After 24, 48, and 72 hours of exposure, cells were harvested and stained with PI and fluorescein isothiocyanate (FITC) using Annexin V-FITC apoptosis detection kit (BD Biosciences) according to the manufacturer's protocol. Cells were subjected to flow cytometry analysis within one hour of staining.

MG-63 cells [3] = assay: Annexin V-FITC apoptosis assay, MG-63; format: cell-based, human; conditions: at ED50, 72 hours of exposure
Method: as §3

S6K and 4EBP1 = assay: Western blotting, downstream targets of mTOR; format: cell-based, human; conditions: MG-63 and SAOS-2 cells
Method: (§4) Changes in protein level by CuB were checked by Western blotting. […] After 2, 9, and 20 hours of exposure, cells were harvested and immediately lysed with RIPA buffer (Millipore—Upstate, Temecula, Calif.) supplemented with protease inhibitor cocktail (Roche, San Francisco, Calif.), 0.5 mM PMSF (Roche), and 50 mM NaF (Sigma). After 20 minutes of incubation on ice, protein concentrations were measured by Bradford assay with Bio Rad protein assay solution (Bio-Rad, Hercules, Calif.) and samples were adjusted to the same protein concentration. Samples were mixed with 2× Laemmli sample buffer (Bio-Rad) with 5% β-mercaptoethanol (Sigma) and incubated at 95° C. for 10 min to denature the protein. After brief incubation on ice, proteins were separated by SDS-PAGE, transferred to nitrocellulose membrane (Sigma), and blotted with antibodies from either Cell Signaling Technology (Danvers, Mass.) or Santa Cruz Biotechnology (Santa Cruz, Calif.). Target proteins were visualized by Supersignal West Dura Substrate (Thermo-Pierce, Rockford, Ill.). GAPDH protein was used as a loading control.

Akt = assay: Western blotting, Akt phosphorylation; format: cell-based, human; conditions: MG-63 cells
Method: as §4

[4] = system: cyclin A and cyclin-dependent kinase inhibitor 1 (p21^WAF1); assay: Western blotting, cyclin A and p21^WAF1; format: cell-based, human; conditions: MG-63 and SAOS-2 cells
Method: as §4

cyclin D1 = assay: Western blotting, cyclin D1; format: cell-based, human; conditions: MG-63 cells
Method: as §4

[5] = Body weight and side-effects during xenograft treatment; format: in vivo, mice; conditions: week 1, returned to normal in subsequent weeks
Method: All animal experiments strictly followed the guidelines of Cedars-Sinai Medical Center and the National Institute of Health (NIH). Female nu/nu athymic nude mice (5-6 weeks old; average weight 21 g; specific pathogen-free) from Harlan Laboratories (Indianapolis, Ind.) were maintained in pathogen-free condition with sterilized chow and water. 5×10^6 cells of MG-63 cells were mixed with 200 μl of Matrigel solution (BD Biosciences) per injection, and the mixture was injected subcutaneously on the upper flanks of nude mice. After 24 hours, tumor size was measured, and any outliers were ruled out by one-way analysis of variance (ANOVA) test. […] The dose of LD-MTX was the murine equivalent of the human dose of LD-MTX. The conversion was made using dose translation formula by Reagan-Shaw et al., (15). […] Body weights were monitored every 2 days. Tumor size was measured every 2 days, and the tumor volume was calculated using the following formula: A (length)×B (width)×C (height)×0.5236 (16). The experiment was stopped at day 35, and all mice were sacrificed. The presence of metastatic spread was examined macroscopically at the time of autopsy followed by histological examination. At least two tumors from each group were snap-frozen in liquid nitrogen for Western blotting.

Serum chemistry in mice = format: in vivo; conditions: day 35
Method: Whole blood samples were obtained by submandibular bleeding and serum samples were harvested with serum separator tubes (BD Biosciences). Blood count and serum chemistry results were obtained by the Hemagen Analyst Benchtop Chemistry System (Hemagen Diagnostics, Inc. Columbia, Md.). Colony-forming cell (CFC) assays were performed as previously described (18).

mTOR = mTOR (Homo sapiens, UniProt P42345); assay: Western blotting, mTOR phosphorylation; format: cell-based; parameters: endogenous in cells; host or cells: MG-63 and SAOS-2 cells; conditions: MG-63 and SAOS-2 cells; at ED50, 2, 9, or 20 hours
Method: as §4

With `CC(=O)OC(C)(C)/C=C/C(=O)[C@](C)(O)[C@H]1[C@H](O)C[C@@]2(C)[C@@H]3CC=C4[C@H](C[C@H](O)C(=O)C4(C)C)[C@]3(C)C(=O)C[C@]12C` [CuB, cucurbitacin B] the “cytotoxic activity in human OS cells” value [1] was “dose- and time-dependent”, the “cell death after pulse-exposure” value (SAOS-2 cells) was “longer exposure to CuB induced more cell death” and the “increase of G2/M phase” value (MG-63 cells [2]; 20 hours of exposure) was “around 3 fold”. The G2/M phase (MG-63 cells [2]; 20 hours of exposure at ED50 (control 27%)) was 76%, the apoptotic cells (MG-63 cells [3]) was 44% and the “downstream targets of mTOR (S6K, 4EBP1)” value (S6K and 4EBP1) was “Inhibition of downstream targets of mTOR such as S6K and 4EBP1”. The “Akt phosphorylation at S473” value (Akt) was “Inhibition of Akt phosphorylation at S473 was observed in MG-63 cells”, the “protein levels of cyclin A and p21^WAF1” value [4] was “increased the protein levels of cyclin A and cyclin-dependent kinase inhibitor 1 (p21^WAF1) in both cells” and the “levels of cyclin D1” value (cyclin D1) was “Decrease in the levels of cyclin D1 occurred in MG-63”. The initial weight loss ([5]; HD-CuB 1.0 mg/kg) was “up to 5%”, the initial weight loss ([5]; LD-CuB 0.5 mg/kg) was “up to 5%” and the CK (Serum chemistry in mice; HD-CuB 1.0 mg/kg) was 156.0 ± 33.9 U/l. The albumin (Serum chemistry in mice; HD-CuB 1.0 mg/kg) was 3.4 ± 0.1 g/dL, the bilirubin (Serum chemistry in mice; HD-CuB 1.0 mg/kg) was 0.06 ± 0.00 mg/dL and the cholesterol (Serum chemistry in mice; HD-CuB 1.0 mg/kg) was 172.0 ± 8.5 mg/dL. The creatine (Serum chemistry in mice; HD-CuB 1.0 mg/kg) was 0.42 ± 0.25 mg/dL, the globulin (Serum chemistry in mice; HD-CuB 1.0 mg/kg) was 1.6 ± 0.2 g/dL and the total protein (Serum chemistry in mice; HD-CuB 1.0 mg/kg) was 5.0 ± 0.1 g/dL. The uric acid (Serum chemistry in mice; HD-CuB 1.0 mg/kg) was 5.5 ± 0.6 mg/dL, the CK (Serum chemistry in mice; LD-CuB 0.5 mg/kg) was 140.5 ± 70.0 U/l and the albumin (Serum chemistry in mice; LD-CuB 0.5 mg/kg) was 3.1 ± 0.1 g/dL. It also gave a bilirubin (Serum chemistry in mice; LD-CuB 0.5 mg/kg) of 0.09 ± 0.04 mg/dL, a cholesterol (Serum chemistry in mice; LD-CuB 0.5 mg/kg) of 147.0 ± 5.7 mg/dL and a creatine (Serum chemistry in mice; LD-CuB 0.5 mg/kg) of 0.29 ± 0.05 mg/dL. The globulin (Serum chemistry in mice; LD-CuB 0.5 mg/kg) was 0.7 ± 0.9 g/dL, the total protein (Serum chemistry in mice; LD-CuB 0.5 mg/kg) was 3.7 ± 1.0 g/dL and the uric acid (Serum chemistry in mice; LD-CuB 0.5 mg/kg) was 3.7 ± 0.3 mg/dL. For the same molecule, the “mTOR phosphorylation at S2448 and S2481” value (mTOR) was “inhibition of mTOR phosphorylation at S2448 and S2481 without affecting the total level of mTOR”.

— patent US20120238532A1, “TREATMENT OF HUMAN OSTEOSARCOMA” (CEDARS-SINAI MEDICAL CENTER, priority 2009, published 2012)
